Assay [1] has as its system T1, CN1E1.
T1 construct: catalytic triad Ser155, Asp250, His280
The assay is described as follows: ester hydrolysis kinetics. Format: biochemical, uncultured bacterium. Conditions: 5 mM EPPS pH 8.0, 40°C. The text has this: ester hydrolysis kinetics on CN1E1

Assay [2] has as its system T1, CN1E1. The assay is described as follows: ester hydrolysis kinetics, p-nitrophenol release. Format: biochemical, uncultured bacterium. Conditions: pH 7.0 (b12; table heading says pH 8.0), 40°C. An excerpt: ester hydrolysis kinetics, p-nitrophenol release on CN1E1

As a reminder, the Km is the substrate concentration at which the rate is half of its maximum.

Turning to `COC(=O)/C=C/c1cc(O)ccc1O` [2,5-Dihydroxycinnamic acid methyl ester], in the assay with CN1E1 [1], the Km came to 1060 ± 60 µM.

Turning to `COC(=O)c1ccc2cc3ccccc3cc2c1` [Anthracene-2-carboxylic acid methyl ester], the Km in the assay on CN1E1 [1] is 1470 ± 50 µM.

Consider `O=Cc1ccc(C(=O)OCc2ccccc2)cc1` [Benzoic acid, 4-formyl-, phenylmethyl ester], for which the Km in the assay with CN1E1 [1] worked out at 640 ± 60 µM.

Turning to `CCCCOC(C)=O` [Butyl acetate], the Km in the assay on CN1E1 [1] turned out to be 2100 ± 170 µM.

Regarding `COC(=O)c1ccccc1C(=O)OC` [Dimethyl phthalate], in the assay with CN1E1 [1], the Km came out at 1590 ± 100 µM.

With `COC(=O)CBr` [Methyl bromoacetate], the Km with CN1E1 [1] was found to be 1700 ± 90 µM.

Consider `COC(=O)c1ccc2ccc3ccccc3c2c1` [Methyl phenanthrene-3-carboxylate], for which the Km with CN1E1 [1] worked out at 1600 ± 90 µM.

`COC(=O)c1cc2ccccc2c2ccccc12` [Methyl phenanthrene-9-carboxylate]: the Km in the assay with CN1E1 [1] came to 530 ± 30 µM.

As to `CC(=O)Oc1ccccc1` [Phenyl acetate], the Michaelis-Menten constant (Km) with CN1E1 [1] stood at 940 ± 50 µM.

With `CCOC(=O)c1ccc(O)c(O)c1` [Protocatechuic acid ethyl ester], in the assay with CN1E1 [1], the Km amounted to 1140 ± 60 µM.

On to `CC(=O)OC[C@H]1OC=C[C@@H](OC(C)=O)[C@@H]1OC(C)=O` [Tri-O-acetyl-D-glucal], for which the Km in the assay with CN1E1 [1] turned out to be 1080 ± 50 µM.

Consider `CC(=O)OCC(COC(C)=O)OC(C)=O` [Triacetin], for which the Km with CN1E1 [1] stood at 1640 ± 80 µM.

Consider `CC(=O)Oc1ccc([N+](=O)[O-])cc1` [pNP-acetate], for which, in the assay with CN1E1 [2], the Km came out at 190 ± 10 µM.

In the case of “Naphthalene carboxylic acid methyl ester”, the Km with CN1E1 [1] was 710 ± 60 µM.

Values taken from PMC3937722, “Biochemical studies on a versatile esterase that is most catalytically active with polyaromatic esters” (Microbial Biotechnology, 2014).
